Assays:
[1] = test system: L-type inward calcium current (ICaL); experiment: Whole-cell patch-clamp, L-type calcium current in dog ventricular myocytes; type: cell-based; conditions: 10 µM, dog left ventricular myocytes
Experimental: (§1) The effects of SZV-2649 on transmemrane ionic currents were investigated in dog cardiac myocytes after a 5-minute superfusion of the drug.
The L-type inward calcium current (ICaL) was measured from a holding potential of -80 mV with a 40 ms prepulse to -40 mV to inactivate INa (see inset of Fig. 3B). Test pulses of 400 ms duration from − 35 mV to 55 mV were applied with a pulsing cycle length of 3 s. In the internal (pipette) solution, KCl was replaced by 125 mM CsCl to block potassium currents.
Ventricular myocytes from Beagle dogs were enzymatically dissociated as described in detail previously. A single droplet of cell suspension was placed in a transparent recording chamber mounted on the stage of an inverted microscope (Olympus IX51, Olympus, Tokyo, Japan), and individual myocytes were allowed to settle and adhere to the chamber bottom for at least 5–10 min before superfusion was initiated and maintained by gravity. Only rod-shaped cells with clear striations were used. […]
(§2) The membrane currents were recorded with Axopatch-200B amplifiers (Molecular Devices, Sunnyvale, CA, USA) by means of the whole-cell configuration of the patch-clamp technique. […]
The L-type calcium current (ICaL) was recorded in HEPES-buffered Tyrode’s solution supplemented with 3 mM 4-aminopyridine. […]

[2] = test system: slow delayed rectifier potassium current (IKs); experiment: Whole-cell patch-clamp, slow delayed rectifier potassium current in dog ventricular myocytes; type: cell-based; conditions: 10 µM, dog left ventricular myocytes
Experimental: as §1
The slow delayed rectifier potassium current (IKs) was elicited from the holding potential of -80 mV with a prepulse to -40 mV. The IKs tail current was measured at a post pulse to -40 mV after 5-second-long test pulses from − 20 mV to 50 mV using 10 mV increments at the pulsing cycle length of 10 s (see inset of Fig. 4B). The effect of SZV-2649 was investigated at the concentration of 10 µM.
Ventricular myocytes from Beagle dogs were enzymatically dissociated as described in detail previously. […]
as §2
The inward rectifier (IK1), the transient outward (Ito), the rapid (IKr) and the slow (IKs) delayed rectifier potassium currents were recorded in HEPES-buffered Tyrode’s solution. […] When IKr was recorded, IKs was inhibited by using the selective IKs blocker HMR-1556 (0.5 µM). […]

[3] = test system: IKACh in dog atrial trabecular muscle preparations; experiment: Action potential duration in carbachol-pretreated dog atrial trabecular muscle; conditions: 10 µM, after 1 µM carbachol for 10 min
Experimental: The possible effect of SZV-2649 on IKACh was investigated in dog atrial trabecular muscle preparations. Carbachol (1 µM) was added to the tissue bath for 10 min to activate IKACh. […] Application of 10 µM SZV-2649 prolonged APD substantially to a greater degree (100%) than could be expected by its effect on repolarization in the absence of carbachol (10%) as shown in Table 1; Fig. 5D.
Action potentials were recorded in cardiac ventricular trabeculae and papillary muscle preparations obtained from the right ventricles of Beagle dogs (10–15 kg) of either sex using the conventional microelectrode technique. Dogs were sacrificed by iv. sedation with xylazine (1 mg/kg), followed by i.v. administration of 50 mg/kg pentobarbital. After the cornea reflex disapeared the chest was opened, and the heart was rapidly removed. […]
Isolated papillary muscle or atrial trabecula and Purkinje fiber preparations were obtained and prepared from the right ventricle and were individually mounted in a tissue chamber with the volume of 50 ml. […] Transmembrane potentials were recorded using conventional glass microelectrodes, filled with 3 M KCl and having tip resistances of 5–20 MΩ, connected to the input of a high impedance electrometer (Experimetria, type 309, Budapest, Hungary) which was coupled to a dual beam oscilloscope. […]

anesthetized rats = experiment: Coronary artery occlusion/reperfusion-induced ventricular arrhythmias in anesthetized rats; type: in vivo, rat
Source text: The effects of SZV-2649 were further studied in the acute ischemia-induced ventricular arrhythmia model in anasthetized rats. Mexiletine and dofetilide were used as reference compounds for comparison.
The surgical procedure was based on a modified method described in detail in Gömöri et al. (2020)[62]. Pentobarbital-anesthetized male Wistar-Hannover rats were mechanically ventilated and subjected to thoracic surgery to perform a 6-min coronary artery occlusion and 5-min of reperfusion for the development of ischemia-induced ventricular arrhythmias (see Fig. 6A). The right jugular vein was cannulated for the administration of SZV-2649, vehicle, mexiletine or dofetilide, and the right carotid artery was used to measure blood pressure. The three-lead electrocardiogram and body temperature were continuously registered. Ten to twelve rats per group were administered vehicle (dimethyl sulfoxide, 200 µL/kg) or the studied drugs (see above), 2 min before the onset of ischemia as a slow i.v. bolus injection through the right jugular vein. At the end of 5-min reperfusion, hearts were isolated, mounted onto a Langendorff perfusion system, and after re-occluding the coronary artery, were perfused with 5-mL of 70% ethanol via the ascending aorta to delineate the ischemic risk zone. Then the left ventricles were cut along the demarcation lines of denatured area, and the sections were weighed to determine the area of risk to normalize the extent of the ischaemic insult. We evaluated the occurrence of ventricular arrhythmias based on the recommendations of the modified Lambeth Conventions published previously by Curtis et al. (2013)[63].

In the case of `CC(N)COc1c(I)cc(C#N)cc1I.Cl` (stereo not drawn) [SZV-2649, 4-(2-aminopropoxy)-3,5-diiodobenzonitrile hydrochloride], the “Effect on magnitude of ICaL” value [1] was “moderately but significantly decreased”, the “Effect on amplitude of IKs tail current” value [2] was “did not change or only minimally decreased” and the “Prolongation of APD in the presence of carbachol” value [3] was 100%. The “Effect on incidence of ventricular arrhythmias” value (anesthetized rats; 6 min coronary artery occlusion / 5 min reperfusion, i.v. 2 min before ischemia) was “markedly reduced”, the “Incidence of ventricular fibrillation (VF)” value (anesthetized rats; during reperfusion, over 50% in control animals) was 0% and the “Effect on heart rate” value (anesthetized rats; i.v. administration, anesthetized rats) was “significantly decreased”.
